Results on two molecules are retold here after US20050009908A1, “Aqueous dispersion comprising stable nonoparticles of a water-insoluble active and an excipient like middle chain triglycerides (mct)” (priority 2001, published 2005).

Converted amounts (≈) assume the structure as drawn. Where two headings read alike, the source gives them in different places.

This data set can be described thus: Solubility of crystalline substance in the inhibitor (HPLC of saturated solution). The data set is classed as physicochemical. From the text: The mole fraction solubility of the crystalline substantially water-insoluble substance in the inhibitor (x^S1) is simply the number of moles of substance per mole of inhibitor present in a saturated solution of the substance in the inhibitor. As will be realized the equation above is derived for a two component system of a substance and an inhibitor. In those systems where the inhibitor contains more than one compound (for example in the case of a medium chain triglyceride comprising a mixture of triglycerides such as Miglyol 812N, or where a mixture of inhibitors is used) it is sufficient to calculate x^S1 in terms of the “apparent molarity” of the mixture of inhibitors. The apparent molarity of such a mixture is calculated for a mixture of n inhibitor components to be: [formula] • wherein: a, b . . . n are the weight fraction of each component in the inhibitor mixture (for example for component a this is %w/w component a/100); and • Mwa . . . Mwn is the molecular weight of each component a . . . n in the mixture. • x^S1 is then calculated as: [formula]
The mole-fraction solubility of the felodipine/Miglyol 812N (x^sl in Equation I) was determined by magnetically stirring an excess of crystalline felodipine (approx 2-5 times that required for a saturated solution) in Miglyol 812N (5-25 ml) at 350 rpm (protected from light and sealed under a nitrogen atmosphere) for 2 days at room temperature. The resulting mixture was filtered to remove solids (0.2 μm filter) and then analyzed using BPLC to determine the quantity of felodipine dissolved in the Miglyol 812N. […] Miglyol 812N is a mixture of approximately 60% C8-triglyceride (Mw 471) and 40% C10-triglyceride (Mw 555) and has a density of approximately 0.945 g/cm^3. Thus, the apparent molarity of Miglyol 812N is 945/(0.6*471+0.4*555)=1.9].

The mark [1] stands for this setting: oil or lipid, thermodynamic from solid.

The term solubility denotes the dissolved amount per volume that the medium holds. `CCc1cccc(C)c1CNc1cc(C(N)=O)cn2c(C)c(C)nc12` [8-[(2-ethyl-6-methylbenzyl)amino]-2,3-dimethylimidazo[1,2-a]pyridine-6-carboxamide]: the “mole fraction solubility in Miglyol 812N” value was found to be 0.00116 and the “mole fraction solubility in Miglyol 812N/1-decanol mixture” value is given as 0.0103. Under setting [1], the solubility is 37 mM (≈ 12.4 mg/mL) and the solubility at 2 days was determined as 2.2 mM (≈ 0.74 mg/mL).
For `CCOC(=O)C1=C(C)NC(C)=C(C(=O)OC)C1c1cccc(Cl)c1Cl` (centres unmarked) [felodipine], the solubility at 2 days (Miglyol 812N (medium chain triglyceride mixture), oil or lipid, thermodynamic from solid, room temperature, 2 days stirring, read-out: solubility in Miglyol 812N) was found to be 69 mM (≈ 26.5 mg/mL).
